# Laboratory results reported in US7816350B2, “Substituted [1,2,3] triazolo[4,5-D]pyrimidines as cdk inhibitors” (Institute of Experimental Botany ASCR, priority 2002, dated 2010).
# Assays:
# [1] = molecular target: T1, p34^cdc2/cyclin B (CDC2) (Homo sapiens, UniProt P06493); assay: CDK inhibition assay, p34cdc2/cyclin B kinase, histone H1 phosphorylation; type: biochemical
# T1 construct: made in house; host or cells: Sf9 insect cells (baculovirus co-infection)
# Description: Cyclin-dependent kinases (p34^cdc2, p33^cdk2) and cyclins (cyclin B, E) are produced in Sf9 insect cells coinfected with appropriate baculoviral constructs. The cells are harvested 68-72 hrs post infection in lysis buffer for 30 min on ice and the soluble fraction is recovered by centrifugation at 14.000 g for 10 min. The protein extract is stored at −80° C.
# Lysis buffer: 50 mM Tris pH 7.4, 150 mM NaCl, 5 mM EDTA, 20 mM NaF, 1% Tween, 1 mM DTT, 0.1 mM PMSF, leupeptine, aprotonine.
# To carry out experiments on kinetics under linear conditions, the final point test system for kinase activity measurement is used. The kinase is added to reaction mixture in such a way as to obtain linear activity with respect to the concentration of enzyme and with respect to time.
# The p34^cdc2 and p33^cdk2 kinase inhibition determination involves the use of 1 mg/ml histone H1 (Sigma, type III-S) in the presence of 15 μM [γ-^32P]ATP ([…]) (Amersham) in a final volume of 20 μl. Kinase activity is determined at 30° C. in the kinase buffer.
# Tested compounds are usually dissolved to 100 mM solutions in DMSO, final concentration of DMSO in reaction mixture never exceeds 1%. The controls contain suitable dilutions of DMSO.
# After 10 min, addition 3×SDS sample buffer stops the incubations. Phosphorylated proteins are separated electrophoretically using 12.5% SDS polyacrylamide gel. The measurement of kinase activity is done using digital image analysis.
# The kinase activity is expressed as a percentage of maximum activity, the apparent inhibition constants are determined by graphic analysis (FIG. 1).
# Kinase buffer: 50 mM Hepes pH 7.4, 10 mM MgCl2, 5 mM EGTA, 10 mM 2-glycerolphosphate, 1 mM NaF, 1 mM DTT
# [2] = system: β-adrenergic receptors; assay: Modulation of the activity of β-adrenergic receptors, isoproterenol-induced cAMP synthesis in C6 glioma; type: cell-based; conditions: cAMP synthesis induced by 5 μM (−) isoproterenol, rat C6 glioma; for Effect: result in words; for IC50: read-out: I50
# Description: Rat C6 glioma (ATCC N^o CCL107) was cultivated in monolayer in serum-free chemically defined medium containing Ham's F10/minimal essential medium (1:1 vol/vol), 2 mM L-glutamine, 1% (vol/vol) minimal essential medium vitamins (100×), 1% (vol/vol) minimal essential medium nonessential amino acids (100×), 100 U/ml penicillin, 100 μg/ml streptomycin and 30 nM sodium selenite. Incubation was at 37° C. in a humidified atmosphere. Assays were performed in the logarithmic growth phase at a density of 2.5×10^5 cells/cm^2. Intracellular cAMP synthesis was induced by addition of 5 μM (−) isoproterenol. After 30 min incubation at 37° C. the medium was removed and the cellular amount of cAMP determined using the cAMP-enzyme immunoassay kit of Amersham. The I50 is determined from a dose-response curve in duplicate (Table 7). The effect of seven 8-azapurine-analogs was measured after simultaneous addition with isoproterenol.
# As P2Y1-like and A2 purinergic receptors, negatively and positively coupled to adenylate cyclase respectively, are present on rat C6 glioma it has to be determined if the modulation of the synthesis of cAMP is due to inhibition of the activation of β-adrenergic receptors by isoproterenol are due to activation of purinergic receptors.
# [3] = molecular target: IκB-α kinase; assay: IκB-α kinase inhibitory activity, in vitro kinase assay; type: biochemical
# [4] = system: MCF7; assay: In vitro cytotoxic activity, MTT assay, MCF7; type: cell-based; conditions: Homo sapiens, 72 hours
# From the text: One of the parameters used, as the basis for colorimetric assays is the metabolic activity of viable cells. For example, a microtiter assay, which uses the tetrazolium salt MTT, is now widely used to quantitate cell proliferation and cytotoxicity. For instance, this assay is used in drug screening programs and in chemosensitivity testing. Because only metabolically active cells cleave tetrazolium salts, these assays detect viable cells exclusively. In the case of MTT assay, yellow soluble tetrazolium salt is reduced to coloured water-insoluble formazan salt. After it is solubilized, the formazan formed can easily and rapidly be quantified in a conventional ELISA plate reader at 570 nm (maximum absorbance). The quantity of reduced formazan corresponds to number of vital cells in the culture.
# Human T-lymphoblastic leukemia cell line CEM; promyelocytic HL-60 and monocytic U937 leukemias; breast carcinoma cell lines MCF-7, BT549, MDA-MB-231; glioblastoma U87MG cells; cervical carcinoma cells HELA; sarcoma cells U2OS and Saos2; hepatocellular carcinoma HepG2; mouse immortalized bone marrow macrophages B2.4 and B10A.4; P388D1 and L1210 leukemia; B16 and B16F10 melanomas were used for routine screening of compounds. The cells were maintained in Nunc/Corning 80 cm^2 plastic tissue culture flasks and cultured in cell culture medium (DMEM with 5 g/l glucose, 2 mM glutamine, 100 U/ml penicillin, 100 μg/ml streptomycin, 10% fetal calf serum and sodium bicarbonate).
# The cell suspensions that were prepared and diluted according to the particular cell type and the expected target cell density (2.500-30.000 cells per well based on cell growth characteristics) were added by pipette (80 μl) into 96/well microtiter plates. Inoculates were allowed a pre-incubation period of 24 hours at 37° C. and 5% CO2 for stabilisation. Four-fold dilutions of the intended test concentration were added at time zero in 20 μl aliquots to the microtiter plate wells. Usually, test compound was evaluated at six 4-fold dilutions. In routine testing, the highest well concentration was 266.7 μM, but it can be the matter of change dependent on the agent. All drug concentrations were examined in duplicates. Incubations of cells with the test compounds lasted for 72 hours at 37° C., in 5% CO2 atmosphere and 100% humidity. At the end of incubation period, the cells were assayed by using the MTT. Ten microliters of the MTT stock solution were pipetted into each well and incubated further for 1-4 hours. After this incubation period, formazan was solubilized by addition of 100 μl/well of 10% SDS in water (pH=5.5) followed by further incubation at 37° C. overnight. The optical density (OD) was measured at 540 nm with the Labsystem iEMS Reader MF (UK). The tumour cell survival (TCS) was calculated using the following equation: TCS=(ODdrug exposed well/mean ODcontrol wells)×100%. The IC50 value, the drug concentration lethal to 50% of the tumour cells, was calculated from the obtained dose response curves (FIG. 2).
# [5] = system: K-562; assay: In vitro cytotoxic activity, MTT assay, K-562; type: cell-based; conditions: Homo sapiens, K562, 72 hours
# T1 sequence (P06493 whole entry, species assumed): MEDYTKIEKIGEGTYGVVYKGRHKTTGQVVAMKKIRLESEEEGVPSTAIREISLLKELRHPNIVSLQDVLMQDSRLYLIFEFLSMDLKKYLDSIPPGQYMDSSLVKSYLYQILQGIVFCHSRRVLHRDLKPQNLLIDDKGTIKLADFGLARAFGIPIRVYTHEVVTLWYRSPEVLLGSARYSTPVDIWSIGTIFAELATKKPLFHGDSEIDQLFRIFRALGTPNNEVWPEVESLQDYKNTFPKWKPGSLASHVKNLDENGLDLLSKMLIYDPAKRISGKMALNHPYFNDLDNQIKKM
# T1 sequence (P14635 whole entry partner, species assumed): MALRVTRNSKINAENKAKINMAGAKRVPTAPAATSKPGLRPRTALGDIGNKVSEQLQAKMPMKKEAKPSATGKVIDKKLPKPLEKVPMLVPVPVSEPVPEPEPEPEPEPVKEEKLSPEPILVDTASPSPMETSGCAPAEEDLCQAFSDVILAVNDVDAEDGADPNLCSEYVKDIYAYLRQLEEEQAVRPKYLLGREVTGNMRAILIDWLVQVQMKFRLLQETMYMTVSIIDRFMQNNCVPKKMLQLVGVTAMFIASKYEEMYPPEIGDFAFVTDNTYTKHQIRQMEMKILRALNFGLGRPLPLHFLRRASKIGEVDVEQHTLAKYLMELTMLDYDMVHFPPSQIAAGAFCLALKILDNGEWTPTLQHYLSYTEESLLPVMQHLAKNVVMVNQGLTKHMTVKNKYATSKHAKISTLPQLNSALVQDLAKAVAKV
Compound,melting point [°C],IC50 [1] [µM],IC50 [3] [µM],also measured
CC(C)n1nnc2c(NCc3ccccc3)nc(NCCN)nc21,,> 100,> 100,"Effect, fold activation [2]: 1.1-fold activation"
"CC(C)C(CO)Nc1nc(NCc2cccc(O)c2)c2nnn(C(C)C)c2n1 (centres unmarked) [Example 9, 2-(1-Hydroxymethyl-2-methylpropylamino)-6-(3-hydroxybenzylamino)-9-isopropyl-8-azapurine]",150 to 152,,,
CCCCCCNc1nc(NC(CO)c2ccccc2)c2nnn(C(C)C)c2n1 (racemic),,,,Effect [2]: inhibition; IC50 [2]: 12 ± 1 µM
CC[C@H](CO)Nc1nc(NCc2cccc(O)c2)c2nnn(C(C)C)c2n1 [2-R-(1-hydroxymethyl)propylamino-6-(3-hydroxybenzyl)amino-9-isopropyl-8-azapurine],,10,85,"Effect, fold activation [2]: 1.3-fold activation"
CC(C)n1nnc2c(NCc3ccccc3)nc(NCCCN)nc21,,> 100,> 100,Effect [2]: inhibition; IC50 [2]: 31 ± 2 µM
CC(C)n1nnc2c(Nc3cccc(Cl)c3)nc(NC3CCC(N)CC3)nc21 (centres unmarked) [2-(4-aminocyclohexyl)amino-6-(3-chlorophenyl)amino-9-isopropyl-8-azapurine],221 to 223,6.3,60,IC50 [4]: 6.1 µM; IC50 [5]: 7.4 µM

# Second part, led by results:
melting point [°C],IC50 [1] [µM],IC50 [3] [µM],Compound,also measured
120 to 123,,,"CC(C)n1nnc2c(NCc3ccccc3O)nc(N[C@H]3CC[C@H](N)CC3)nc21 [Example 12, 2-(trans-4-Aminocyclohexylamino)-6-(2-hydroxybenzylamino)-9-isopropyl-8-azapurine]",
119 to 124,,,"NCCCNc1nc(NCc2ccccc2)c2[nH]nnc2n1 [Example 20, 2-(3-Aminopropylamino)-6-benzylamino-8-azapurine]",
133 to 139,,,"Cc1nc(NCc2ccccc2)c2nnn(C(C)C)c2n1 [Example 15, 2-methyl-6-benzylamino-9-isopropyl-8-azapurine]",
160 to 163,,,"CC(C)C(CO)Nc1nc(Nc2cccc(Cl)c2)c2nnn(C(C)C)c2n1 (centres unmarked) [Example 10, 2-(1-Hydroxymethyl-2-methylpropylamino)-6-(3-chloroanilino)-9-isopropyl-8-azapurine]",
122 to 124,,,"Clc1nc(NCc2ccccc2)c2[nH]nnc2n1 [Example 18, 2-Chloro-6-benzylamino-8-azapurine]",
